Calls of active or inactive are those of the source. The rule behind the calls is not given here.
Key:
[1] = biological target: T1, Dual specificity calcium/calmodulin-dependent 3',5'-cyclic nucleotide phosphodiesterase 1C (Homo sapiens, UniProt Q14123); test: Inhibition of PDE1C2 (147 to 531 residues) (unknown origin) using 3H-cGMP as substrate at 8000 nM incubated for 15 mins by liquid scintillation counter analysis relative to control
[2] = biological target: T1, Dual specificity calcium/calmodulin-dependent 3',5'-cyclic nucleotide phosphodiesterase 1C; test: Inhibition of PDE1C2 (147 to 531 residues) (unknown origin) using 3H-cGMP as substrate incubated for 15 mins by liquid scintillation counter analysis
[3] = Half life in rat liver microsomes at 1.5 uM; assay type: ADME, Microsome
Rattus norvegicus [4] = test: Antifibrotic activity against bile duct ligation induced Sprague-Dawley rat liver fibrosis model assessed as downregulation of collagen I expression in liver at 2.5 mg/kg,ip administrated once daily for 21 days by Western blotting analysis; assay type: functional, organism-based; details: time 21.0 day
Rattus norvegicus [5] = test: Antifibrotic activity against bile duct ligation induced Sprague-Dawley rat liver fibrosis model assessed as reduction in fibrotic lesion at 2.5 mg/kg,ip administrated once daily for 21 days by hematoxylin and eosin staining based analysis; assay type: functional, organism-based; details: time 21.0 day
Rattus norvegicus [6] = test: Antifibrotic activity against bile duct ligation induced Sprague-Dawley rat liver fibrosis model assessed as reduction in alpha-smooth muscle actin level in liver at 2.5 mg/kg,ip administrated once daily for 21 days by immunofluorescence staining based analysis; assay type: functional, organism-based; details: time 21.0 day
Rattus norvegicus [7] = test: Antifibrotic activity against bile duct ligation induced Sprague-Dawley rat liver fibrosis model assessed as reduction in liver damage at 2.5 mg/kg,ip administrated once daily for 21 days by hematoxylin and eosin staining based analysis; assay type: functional, organism-based; details: time 21.0 day
Rattus norvegicus [8] = test: Antifibrotic activity against bile duct ligation induced Sprague-Dawley rat liver fibrosis model assessed as reduction in collagen deposition at 2.5 mg/kg,ip administrated once daily for 21 days by Masson's trichome staining based analysis; assay type: functional, organism-based; details: time 21.0 day
Rattus norvegicus [9] = test: Antifibrotic activity against bile duct ligation induced Sprague-Dawley rat liver fibrosis model assessed as reduction in ALT level at 2.5 mg/kg,ip administrated once daily for 21 days; assay type: functional, organism-based; details: time 21.0 day
Rattus norvegicus [10] = test: Antifibrotic activity against bile duct ligation induced Sprague-Dawley rat liver fibrosis model assessed as reduction in AST level at 2.5 mg/kg,ip administrated once daily for 21 days; assay type: functional, organism-based; details: time 21.0 day
Rattus norvegicus [11] = test: Antifibrotic activity against bile duct ligation induced Sprague-Dawley rat liver fibrosis model assessed as reduction in total bile acid level at 2.5 mg/kg,ip administrated once daily for 21 days; assay type: functional, organism-based; details: time 21.0 day
Rattus norvegicus [12] = test: Antifibrotic activity against bile duct ligation induced Sprague-Dawley rat liver fibrosis model assessed as increase in cGMP level in liver at 2.5 mg/kg,ip administrated once daily for 21 days by ELISA; assay type: functional, organism-based; details: time 21.0 day
Rattus norvegicus [13] = test: Antifibrotic activity against bile duct ligation induced Sprague-Dawley rat liver fibrosis model assessed as downregulation of alpha-SMA expression in liver at 2.5 mg/kg,ip administrated once daily for 21 days by Western blotting analysis; assay type: functional, organism-based; details: time 21.0 day
Rattus norvegicus [14] = test: Antifibrotic activity against bile duct ligation induced Sprague-Dawley rat liver fibrosis model assessed as increase in cAMP level in liver at 2.5 mg/kg,ip administrated once daily for 21 days by ELISA; assay type: functional, organism-based; details: time 21.0 day

T1 sequence (Q14123 whole entry, the tested form may be a part): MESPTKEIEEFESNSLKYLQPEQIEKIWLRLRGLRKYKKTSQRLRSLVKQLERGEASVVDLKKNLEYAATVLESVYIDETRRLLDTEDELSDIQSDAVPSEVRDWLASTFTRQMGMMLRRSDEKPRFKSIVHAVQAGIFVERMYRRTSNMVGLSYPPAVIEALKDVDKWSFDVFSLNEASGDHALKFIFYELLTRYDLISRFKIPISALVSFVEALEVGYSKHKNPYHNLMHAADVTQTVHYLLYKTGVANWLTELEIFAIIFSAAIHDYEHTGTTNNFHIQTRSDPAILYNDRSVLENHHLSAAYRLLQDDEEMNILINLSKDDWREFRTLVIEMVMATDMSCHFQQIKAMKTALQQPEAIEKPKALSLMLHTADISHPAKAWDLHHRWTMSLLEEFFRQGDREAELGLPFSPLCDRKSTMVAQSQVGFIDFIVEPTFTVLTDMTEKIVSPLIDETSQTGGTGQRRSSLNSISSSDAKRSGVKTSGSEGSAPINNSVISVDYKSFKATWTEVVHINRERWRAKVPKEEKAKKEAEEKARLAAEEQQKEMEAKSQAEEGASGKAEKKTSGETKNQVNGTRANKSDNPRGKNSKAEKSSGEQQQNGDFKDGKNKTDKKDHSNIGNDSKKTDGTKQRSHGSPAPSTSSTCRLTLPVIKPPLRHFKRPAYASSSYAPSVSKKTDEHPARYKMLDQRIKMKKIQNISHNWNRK

**Q.** With `CC1=C(C(=O)OCC2CCCCC2)C(c2ccc(OC(F)F)c(OCC3CC3)c2)N(/C=C/Cc2ccccc2)C(=O)N1` (stereo unspecified) as the compound, how does the inhibition [1] read?
**A.** 47%

**Q.** With `COc1ccc(C2C(C(=O)OCC3CCCCC3)=C(C)NC(=O)N2C(=O)OCC2CCCCC2)cc1OC` (stereo unspecified) as the compound, how does the IC50 [2] read?
**A.** 0.0059 µM

**Q.** What about the half-life at 1.5 µM [3] of the same compound?
**A.** 2.1 min

**Q.** For `CC1=C(C(=O)OCC2CCCCC2)C(c2cccc(OCC3CC3)c2)N(C(=O)SCc2ccccc2)C(=O)N1` (stereo unspecified), which IC50 [2] is on record?
**A.** 0.042 µM

**Q.** What does the source list for `CC1=C(C(=O)OCC2CCCCC2)C(c2ccc(OC(F)F)c(OCC3CC3)c2)N(C(=O)OCC2CCCCC2)C(=O)N1` (stereo unspecified)?
**A.** IC50 [2]: 0.0023 µM; half-life at 1.5 µM [3]: 3.68 min

**Q.** For `CC1=C(C(=O)OCC2CCCCC2)C(c2ccc(OC(F)F)c(OC(F)F)c2)N(C(=O)OCC2CCCCC2)C(=O)N1` (stereo unspecified), which IC50 [2] is on record?
**A.** 0.0075 µM

**Q.** And the half-life at 1.5 µM [3]?
**A.** 3.03 min

**Q.** Which IC50 [2] does the source give for `COC(=O)C1=C(C)NC(=O)N(C(=O)SCc2ccccc2)C1c1ccc(OC(F)F)c(OCC2CC2)c1` (stereo unspecified) here?
**A.** 0.103 µM

**Q.** For `CCNC(=O)N1C(=O)NC(C)=C(C(=O)OCC2CCCCC2)C1c1ccc(OC(F)F)c(OCC2CC2)c1` (stereo unspecified), which IC50 [2] is on record?
**A.** 4.69 µM

**Q.** Which IC50 [2] does the source give for `CC1=C(C(=O)OCC2CCCCC2)C(c2cccc(Oc3ccccc3)c2)NC(=O)N1` (stereo unspecified) here?
**A.** 2.94 µM

**Q.** With `COC(=O)C1=C(C)NC(=O)N(C(=O)OCC2CCCCC2)C1c1ccc(OC(F)F)c(OCC2CC2)c1` (stereo unspecified) as the compound, how does the IC50 [2] read?
**A.** 0.037 µM

**Q.** For `CC1=C(C(=O)OCC2CCCCC2)C(c2ccc(OC(F)F)c(OCC3CC3)c2)N(C(=S)Oc2ccccc2)C(=O)N1` (stereo unspecified), which IC50 [2] is on record?
**A.** 0.0058 µM

**Q.** And the half-life at 1.5 µM [3]?
**A.** 6.1 min

**Q.** With `CC1=C(C(=O)OCC2CCCCC2)C(c2ccc(OC(F)F)c(OCC3CC3)c2)N(C)C(=O)N1` (stereo unspecified) as the compound, how does the inhibition [1] read?
**A.** 45%

**Q.** For `COc1ccc(C2C(C(=O)OCc3ccccc3)=C(C)NC(=O)N2C(=O)OCc2ccccc2)cc1OC` (stereo unspecified), which IC50 [2] is on record?
**A.** 0.063 µM

**Q.** For `CC1=C(C(=O)OCC2CCCCC2)C(c2ccc(Cl)nc2)N(C(=O)OCC2CCCCC2)C(=O)N1` (stereo unspecified), which IC50 [2] is on record?
**A.** 0.195 µM

**Q.** With `COc1ccc(C2C(C(=O)OCC3CCCCC3)=C(C)NC(=O)N2C(=O)OCC2CCCCC2)cn1` (stereo unspecified) as the compound, how does the IC50 [2] read?
**A.** 0.051 µM

**Q.** For `COc1ccc(C2NC(=O)NC(C)=C2C(=O)OCC2CCCCC2)cc1OC` (stereo unspecified), which IC50 [2] is on record?
**A.** 3.59 µM

**Q.** For `CC(=O)N1C(=O)NC(C)=C(C(=O)OCC2CCCCC2)C1c1ccc(OC(F)F)c(OCC2CC2)c1` (stereo unspecified), which IC50 [2] is on record?
**A.** 2.33 µM

**Q.** Which inhibition [1] does the source give for `CC1=C(C(=O)OCC2CCCCC2)C(c2ccc(OC(F)F)c(OCC3CC3)c2)N(Cc2cccc(F)c2)C(=O)N1` (stereo unspecified) here?
**A.** 40%

**Q.** Which IC50 [2] does the source give for `CC1=C(C(=O)OCC2CCCCC2)C(c2ccc(OC(F)F)c(OCC3CC3)c2)N(C(=O)/C=C/c2ccccc2)C(=O)N1` (stereo unspecified) here?
**A.** 6.06 µM

**Q.** Which IC50 [2] does the source give for `COc1ccc(C2C(C(=O)OCC3CCCC3)=C(C)NC(=O)N2C(=O)OCC2CCCC2)cc1OC` (stereo unspecified) here?
**A.** 0.042 µM

**Q.** Which Activity (Rattus norvegicus [4]) does the source give for `CC1=C(C(=O)OCC2CCCCC2)C(c2ccc(OC(F)F)cc2)N(C(=O)SCc2ccccc2)C(=O)N1` (stereo unspecified) here?
**A.** Active

**Q.** And the Activity (Rattus norvegicus [5])?
**A.** Active

**Q.** And the IC50 [2]?
**A.** 0.021 µM

**Q.** And the Activity (Rattus norvegicus [6])?
**A.** Active

**Q.** And the Activity (Rattus norvegicus [7])?
**A.** Active

**Q.** And the Activity (Rattus norvegicus [8])?
**A.** Active

**Q.** And the Activity (Rattus norvegicus [9])?
**A.** Active

**Q.** What about the Activity (Rattus norvegicus [10]) of the same compound?
**A.** Active

**Q.** And the Activity (Rattus norvegicus [11])?
**A.** Active

**Q.** And the half-life at 1.5 µM [3]?
**A.** 7.1 min

**Q.** And the Activity (Rattus norvegicus [12])?
**A.** inactive

**Q.** And the Activity (Rattus norvegicus [13])?
**A.** Active

**Q.** What about the Activity (Rattus norvegicus [14]) of the same compound?
**A.** Active
